# According to US20120009152A1, “NITRIC OXIDE DONORS FOR TREATMENT OF DISEASE AND INJURY” (priority 2002, published 2012):
# Legend:
# [1] = test system: rats subjected to embolic MCA occlusion; assay: Infarct volume after embolic MCA occlusion, SNAP study; assay type: in vivo, rat; conditions: SNAP 30 μg/kg iv bolus then 300 μg/kg/h for 60 minutes at 24 hours after MCA occlusion; 14 days; vs saline
# Protocol: (§1) The question arises as to the specificity of this NO agent for the induction of neurogenesis and functional benefit. Are the effects specific for DETA/NONOate or would other agents that donate NO likewise provide functional benefit? To test this question, rats were treated with another NO donor, S-nitroso-N-acetylpenicillamine (SNAP, Sigma) that is structurally different from DETA/NONOate. Young, male adult Wistar rats were subjected to embolic MCA occlusion (Zhang et al., 1997). SNAP at a dose of 30 μg/kg was intravenously administered to rats as a bolus followed by 300 μg/kg/h infusion for 60 minutes at 24 hours after embolic MCA occlusion. As functional outcome measures, the rotarod test which assesses motor function such as coordination and balance (Zhang et al., 2000), the adhesive removal test which measures forelimb somato-sensorimotor asymmetries (Schallert et al., 2000), and animal body weight were measured prior to treatment and at 2, 4, 7, and 14 days after treatment. Animals were sacrificed at 14 days after stroke and the infarct volume was measured (Zhang, et al., 1997). […] These benefits persisted to the time of sacrifice at 14 days post stroke. […] Thus, the effect of the treatment is one of restorative therapy not neuroprotective therapy. […] Functional improvement in these animals is associated with change and remodeling of brain. […]
# [2] = test system: rats subjected to embolic MCA occlusion; assay: Rotarod test after embolic MCA occlusion, SNAP study; assay type: in vivo, rat; conditions: SNAP at 24 hours after MCA occlusion; by 4 days after stroke, persisted to 14 days
# Protocol: as §1
# [3] = test system: rats subjected to embolic MCA occlusion; assay: Adhesive removal test after embolic MCA occlusion, SNAP study; assay type: in vivo, rat; conditions: SNAP at 24 hours after MCA occlusion; by 4 days after stroke, persisted to 14 days
# Protocol: as §1
# [4] = Animal body weight after embolic MCA occlusion, SNAP study; assay type: in vivo, rat; conditions: SNAP at 24 hours after MCA occlusion; 7 days after stroke; vs saline
# Protocol: as §1
# [5] = test system: Mouse brain-derived endothelial cells; assay: Capillary-like tube formation assay; assay type: cell-based
# Protocol: An in vitro angiogenesis assay was performed. Briefly, 0.8 ml of growth factor reduced Matrigel (Becton Dickinson) was added to pre-chilled 35 mm culture dishes and allowed to polymerize at 37° C. for 2 to 5 hours. […] For quantitative measurements of capillary tube formation, three random areas of Matrigel dishes were imaged and the length of continuous cords of three or more cells was measured.
# cGMP = conditions: local administration to rat brain slices; cited from earlier work
# basilar artery = conditions: rats; cited from earlier work
# dog cerebral arteries = conditions: cited from earlier work
compound,measurement,setting,value
"CC(=O)N[C@H](C(=O)O)C(C)(C)SN=O (racemic) [SNAP, S-nitroso-N-acetylpenicillamine]",volume of cerebral infarction,[1],no significant difference
same,function measured with the rotarod,[2],significant improvement
same,function measured with the adhesive removal test,[3],significant improvement
same,Animal body weight,[4],significantly increased
"Nc1nc2c(nc(Br)n2[C@@H]2O[C@@H]3COP(=O)(O)O[C@H]3[C@H]2O)c(=O)[nH]1 [8-BrcGMP, 8-Br-cGMP]",capillary-like tube formation,[5]; 8-BrcGMP 1 mM,significantly (p<0.05) increased
"O=c1onc2cnc3ccccc3n12 [ODQ, 1H-[1,2,4]oxadiazolo[4,3-a]quinoxaline-1-one]",inhibition of DETANONOate-induced capillary-like tube formation,[5]; DETANONOate in the presence of ODQ,completely inhibited
same,inhibition of 8-BrcGMP-induced capillary-like tube formation,[5]; ODQ,did not significantly inhibit
same,inhibition of Sildenafil-induced capillary-like tube formation,"[5]; ODQ 10 μM, Sildenafil 300 nM",significantly inhibited
CCCOc1ccccc1-c1nc2nn[nH]c2c(=O)[nH]1 [zaprinast],cGMP release,cGMP,increase of cGMP release
same,dilatation of the basilar artery,basilar artery,elicits dilatation of the basilar artery
same,dilatation of cerebral arteries,dog cerebral arteries,produces dilatation of dog cerebral arteries
